Measurements: patent US8999655B2, “Increase of myeloid microvesicles in the cerebrospinal fluid as biomarker of microglia/macrophage activation in neurological disorders” (Consiglio Nazionale delle Ricerche, priority 2010, dated 2015)

Key:
[1] = test system: Cultured hippocampal neurons; assay: Quantification of neuronal damage (PI uptake, annexin-V staining) after Aβ-treated MVs; assay type: cell-based; details: 20 μM CNQX and 100 μM APV applied together during 1 h exposure to Aβ-treated MVs, read 24 h later
Procedure: (§1) FIG. 12. Cultured hippocampal neurons were loaded with the ratiometric calcium dye FURA-2 for 1 h. During FURA-2 loading, neurons were exposed to microglia-derived microvesicles pre-incubated overnight in neuronal medium in the presence or in the absence of Abeta 1-42 (5 μM). Neurons were then wash in Kreb's ringer and resting calcium levels and calcium responsiveness to glutamate agonists (AMPA 100 μM, NMDA 100 μM) were evaluated using a single cell calcium imaging system. […] PI uptake and fragmentation of neuronal cytoskeleton (C) and staining for annexin-V, quantified in F, indicate that Aβ-treated MVs strongly affect neuronal viability. […] I Quantitative analysis of mean amplitude of calcium responses evoked by AMPA or NMDA in control neurons and neurons exposed to Aβ-treated AD MVs.
Living neurons were exposed annexin-V-FITC, fixed with 4% paraphormaldeyde and counterstained with antibodies direct against the neuronal marker SNAP-25. Apoptotic processes, labelled by annexin-V, were quantified by the Image J software and normalized to SNAP-25 immunoreactivity, as an index of neurite density. […] PI positive nuclei were quantified and normalized to total Hoescht positive nuclei. α-tubulin staining was carried out to evaluate integrity of neuronal cytoskeleton. At least 10 different fields from three independent experiments have been analyzed.

[2] = test system: Cultured hippocampal neurons; assay: Calcium imaging (FURA-2) of basal cytosolic calcium in neurons exposed to Aβ-treated MVs; assay type: cell-based; details: APV and CNQX applied together; FIG. 12G
Procedure: as §1
Polychrome V (TILL Photonics, Grafelfing, Germany) was used as a light source. Fura-2 fluorescence images were collected with a PCO Super VGA SensiCam (Axon Instruments, Forest City, Calif., USA) and analyzed with TILL vision software. […] The ratio values in discrete areas of interest were calculated from sequences of images to obtain temporal analyses. Calcium concentrations were expressed as F340/380 fluorescence ratios.

Primary mouse microglia = assay: Release of AnnexinV+ shed vesicles from ATP-stimulated microglia, measured by FACS; assay type: cell-based; details: FIG. 13
Procedure: FIG. 13. FTY720 treatment. Primary mouse microglia was pre-treated, or not, with FTY720, also named fingolimod or Gylenia, currently in course of registration for the treatment of multiple sclerosis, for 30 min., then ATP was added for further 30 min. to induce the release of AnnexinV^+ shed vesicles, as measured by FACS.
Dendrites of neurons exposed to Aβ1-42-treated-MVs have a frequently fragmented or beaded appearance (FIG. 12D), display abnormal cytoplasmic calcium concentration (FIG. 12A) and reduced responsiveness to glutamate agonists (FIG. 12B). […] Similar detrimental effects are induced in cultured neurons by MVs isolated from AD CSF, pre-incubated with Aβ1-42 (FIG. 12H-I). Finally, primary mouse microglia was pre-treated, or not, with FTY720, also named fingolimod or Gylenia (FIG. 13), currently in course of registration for the treatment of multiple sclerosis, for […], then ATP was added for 30 min. to induce the release of AnnexinV^+ shed vesicles, as measured by FACS. […] Therefore, the number of shed vesicles in the CSF of treated patients represents a biomarker of therapeutic efficacy of MS or other neurological disorders therapeutic treatment.

[3] = target: T1, acid sphingomyelinase (A-SMase) (Homo sapiens, UniProt P17405); details: recently identified; mechanism similar to tricyclic antidepressants; cited from earlier work
T1 sequence (P17405 47-631): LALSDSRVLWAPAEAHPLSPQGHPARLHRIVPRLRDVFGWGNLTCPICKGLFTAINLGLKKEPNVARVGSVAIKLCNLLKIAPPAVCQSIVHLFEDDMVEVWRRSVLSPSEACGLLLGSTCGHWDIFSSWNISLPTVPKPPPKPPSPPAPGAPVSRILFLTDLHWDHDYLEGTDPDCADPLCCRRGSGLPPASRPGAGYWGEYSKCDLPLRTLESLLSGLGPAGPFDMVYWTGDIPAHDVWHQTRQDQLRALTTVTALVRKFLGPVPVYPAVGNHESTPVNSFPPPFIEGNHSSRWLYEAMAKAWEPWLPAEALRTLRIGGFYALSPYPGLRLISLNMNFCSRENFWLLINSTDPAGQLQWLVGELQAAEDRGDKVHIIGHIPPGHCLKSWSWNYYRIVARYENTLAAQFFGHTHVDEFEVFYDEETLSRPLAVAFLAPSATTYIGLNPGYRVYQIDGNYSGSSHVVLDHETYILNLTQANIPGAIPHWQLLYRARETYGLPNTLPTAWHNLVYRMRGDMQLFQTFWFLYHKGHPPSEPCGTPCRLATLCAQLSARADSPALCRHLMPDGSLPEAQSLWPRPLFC

isolectin IB-4 [4] = assay: Specificity of IB4-FITC labelling of primary microglia (fluorescence microscopy); assay type: binding, Baindeiraea Simplicifolia; details: IB4-FITC pretreated with 1M melibiose, FIG. 5A
Source text: (§2) FIG. 5. IB-4 labeling of microglia/macrophage-derived MVs is specific. A. Differential interference contrast microscopy (right panels) and fluorescent images (left panels) of primary microglia labelled in vivo with IB4-FITC.
(§3) CSF collected from naïve mice or mice exposed to different inflammatory treatments was directly stained with FITC-conjugate Isolectin B4 from Baindeiraea Simplicifolia, (IB4-FITC, SIGMA), and the phosphatydil serine ligand annexin-V in 1% BSA. Specificity of IB4 labelling was evaluated by treating IB4-FITC with 1 M melibiose (6-O-a-D-galactopyranosyl-D-glucose, Sigma M5500) for 30 min before addition to Shed MVs (FIG. 9) as previously described (Ayoub A E et al.). CSF was then diluted in PBS buffer and labelled MVs were acquired within a fixed time interval on a Canto II HTS flow cytometer (Becton Dickinson). Data were analysed using FCS 3 software (Becton Dickinson, Franklin Lakes, N.J., USA). A gate was established on size using beads of 0.5-2 μm. Whithin this gate IB4/annexin-V double positive events (number of events/μl) were evaluated as a parameter of MVs concentration in the CSF. […] IB4 and annexin-V double positive events were evaluated as a parameter of shed MVs concentration while IB4 and CD63 double positive events was evaluated as a parameter of exosome concentration. […]

isolectin IB-4 [5] = assay: Specificity of IB4-FITC labelling of MVs shed from N9 microglia (flow cytometry); assay type: binding, Baindeiraea Simplicifolia; details: melibiose pretreatment, FACS, FIG. 5B
Source text: as §2, §3

SMILES: N[C@@H](CCCP(=O)(O)O)C(=O)O [APV]
- neuronal damage caused by Aβ-treated MVs (PI uptake, annexin-V staining) [1]: strongly prevented
- increase in cytoplasmic calcium level induced by Aβ-treated MVs [2]: almost completely inhibited

SMILES: N#Cc1cc2[nH]c(=O)c(=O)[nH]c2cc1[N+](=O)[O-] [CNQX]
- neuronal damage caused by Aβ-treated MVs (PI uptake, annexin-V staining) [1]: strongly prevented
- increase in cytoplasmic calcium level induced by Aβ-treated MVs [2]: almost completely inhibited

SMILES: CCCCCCCCc1ccc(CCC(N)(CO)CO)cc1 [FTY720]
- MP shedding (Primary mouse microglia): potently inhibits MP shedding
- release of AnnexinV+ shed vesicles (Primary mouse microglia; FTY720 pre-treatment 30 min, then ATP for further 30 min): completely prevented the release of shed vesicles above background levels
- release of AnnexinV+ shed vesicles (Primary mouse microglia; FTY720 pre-treatment 18 h, then ATP 30 min): completely prevented the release of shed vesicles above background levels
- inhibition of A-SMase [3]: inhibitor of A-SMase

SMILES: OC[C@H]1O[C@H](OC[C@H]2OC(O)[C@H](O)[C@@H](O)[C@@H]2O)[C@H](O)[C@@H](O)[C@H]1O (stereo partly drawn) [melibiose, 6-O-a-D-galactopyranosyl-D-glucose]
- IB4-FITC binding to the cell surface (isolectin IB-4 [4]): completely prevents its binding to the cell surface
- IB4-FITC labeling of intact MVs (isolectin IB-4 [5]): completely abolished IB4-FITC labeling
